How the values were obtained:
[1] = target: T1, p38 MAPKα isoform (MAPK14) (Homo sapiens, UniProt Q16539); assay: p38 MAPKα enzyme inhibition (Z-LYTE FRET); assay type: biochemical; details: Table 2B, unit inferred; read-out: p38 MAPKα (Enzyme Profile)
T1 construct: purchased Life Technologies
Summary of the method: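 Activity was measured indirectly as phosphorylation of a MAPKAP-K2-derived FRET peptide. Enzyme (added at 40 ng/mL) was preincubated 2 h at RT with compound (added solutions 40–0.0012 μg/mL).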

p38MAPKγ (MAPK12) = target: T2, p38MAPKγ (MAPK12) (Homo sapiens, UniProt P53778); assay: p38 MAPKγ enzyme inhibition (Z-LYTE FRET); assay type: biochemical; details: Table 2B, unit inferred; read-out: p38 MAPKγ (Enzyme Profile)
T2 construct: purchased Life Technologies
T2 sequence (P53778 1-367): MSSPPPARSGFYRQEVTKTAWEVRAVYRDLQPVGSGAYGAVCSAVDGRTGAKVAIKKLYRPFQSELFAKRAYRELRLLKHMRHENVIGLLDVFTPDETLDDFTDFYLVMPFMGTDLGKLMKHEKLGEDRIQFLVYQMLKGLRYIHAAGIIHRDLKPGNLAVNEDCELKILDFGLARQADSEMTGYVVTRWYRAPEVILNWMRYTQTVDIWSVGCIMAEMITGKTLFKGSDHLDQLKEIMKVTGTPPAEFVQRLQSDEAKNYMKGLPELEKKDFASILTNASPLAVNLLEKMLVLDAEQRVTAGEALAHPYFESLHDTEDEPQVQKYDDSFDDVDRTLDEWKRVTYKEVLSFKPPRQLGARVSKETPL
Summary of the method: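 Enzyme (added at 800 ng/mL) was preincubated 2 h at RT with compound (solutions of 40 to 0.0012 μg/mL), then FRET peptide (8 μM) and ATP (400 μM), both as added, were reacted 1 h at RT. Protease development followed for 1 h; phosphorylation was read as the coumarin/fluorescein emission ratio.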

T1 sequence (Q16539 whole entry, canonical isoform): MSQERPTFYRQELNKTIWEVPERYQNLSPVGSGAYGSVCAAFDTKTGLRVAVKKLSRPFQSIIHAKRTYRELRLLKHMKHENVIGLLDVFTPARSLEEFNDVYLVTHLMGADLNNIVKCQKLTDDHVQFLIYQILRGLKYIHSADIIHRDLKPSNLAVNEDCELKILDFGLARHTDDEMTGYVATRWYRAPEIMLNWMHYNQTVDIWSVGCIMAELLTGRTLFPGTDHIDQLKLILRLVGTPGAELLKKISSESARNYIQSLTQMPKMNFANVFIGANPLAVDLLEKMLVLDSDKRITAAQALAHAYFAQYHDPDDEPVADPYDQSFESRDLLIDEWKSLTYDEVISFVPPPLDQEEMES

Which IC50 [1] does the source give for `Cc1ccc(-n2nc(C(C)(C)C)cc2NC(=O)Nc2ccc(OCc3ccnc(Nc4cncc(N5CCOCC5)n4)c3)c3ccccc23)cc1` [Example 118, 1-(3-(tert-butyl)-1-(p-tolyl)-1H-pyrazol-5-yl)-3-(4-((2-((6-morpholinopyrazin-2-yl)amino)pyridin-4-yl)methoxy)naphthalen-1-yl) urea] here?
Its IC50 is 5.5 nM.

And the IC50 (p38MAPKγ (MAPK12))?
Its IC50 is 115 nM.

Which results are given for `CCc1cncc(Nc2cc(COc3ccc(NC(=O)Nc4cc(C(C)(C)C)nn4-c4cc(C)cc(OC)c4)c4ccccc34)ccn2)n1` [Example 221, 1-(3-(tert-butyl)-1-(3-methoxy-5-methylphenyl)-1H-pyrazol-5-yl)-3-(4-((2-((6-ethylpyrazin-2-yl)amino)pyridin-4-yl)methoxy)naphthalen-1-yl)urea]?
IC50 [1]: 81 nM; IC50 (p38MAPKγ (MAPK12)): 1270 nM

`CSc1ccc(-n2nc(C(C)(C)C)cc2NC(=O)Nc2ccc(OCc3ccnc(Nc4cnccn4)c3)c3ccccc23)cc1` [Example 149, 1-(3-(tert-butyl)-1-(4-(methylthio)phenyl)-1H-pyrazol-5-yl)-3-(4-((2-(pyrazin-2-ylamino)pyridin-4-yl)methoxy)naphthalen-1-yl)urea] was tested. Which IC50 [1] did it give?
The IC50 was 13 nM.

What about the IC50 (p38MAPKγ (MAPK12)) of the same compound?
Its IC50 is over 15900 nM.

`Cc1ccc(-n2nc(C(C)(C)C)cc2NC(=O)Nc2ccc(OCc3ccnc(Nc4cnc(C(=O)NCCOC(C)C)cn4)c3)c3ccccc23)cc1` [Example 124, 5-((4-(((4-(3-(3-(tert-butyl)-1-(p-tolyl)-1H-pyrazol-5-yl)ureido)naphthalen-1-yl)oxy)methyl)pyridin-2-yl)amino)-N-(2-isopropoxy-ethyl)pyrazine-2-carboxamide] was tested. Which IC50 [1] did it give?
The IC50 was 288 nM.

What about the IC50 (p38MAPKγ (MAPK12)) of the same compound?
Its IC50 is over 13700 nM.

With `CCCNC(=O)c1cnc(Nc2cc(COc3ccc(NC(=O)Nc4cc(C(C)(C)C)nn4-c4ccc(C)cc4)c4ccccc34)ccn2)cn1` [Example 192, 5-((4-(((4-(3-(3-(tert-butyl)-1-(p-tolyl)-1H-pyrazol-5-yl)ureido)naphthalen-1-yl)oxy)methyl)pyridin-2-yl)amino)-N-propylpyrazine-2-carboxamide] as the compound, how does the IC50 [1] read?
Its IC50 is 46 nM.

What about the IC50 (p38MAPKγ (MAPK12)) of the same compound?
Its IC50 is over 14600 nM.

`CO[C@@H]1CCCN(C(=O)c2cnc(Nc3cc(COc4ccc(NC(=O)Nc5cc(C(C)(C)C)nn5-c5ccc(C)cc5)c5ccccc45)ccn3)cn2)C1` [Example 239, (R)-1-(3-(tert-butyl)-1-(p-tolyl)-1H-pyrazol-5-yl)-3-(4-((2-((5-(3-methoxy-piperidine-1-carbonyl)pyrazin-2-yl)amino)pyridin-4-yl)methoxy)naphthalen-1-yl)urea] was tested. Which IC50 [1] did it give?
Its IC50 is 14 nM.

And the IC50 (p38MAPKγ (MAPK12))?
Its IC50 is 130 nM.

Which results are given for `Cc1ccc(-n2nc(C(C)(C)C)cc2NC(=O)Nc2ccc(OCc3ccnc(Nc4cncc(N(C)C)n4)c3)c3ccccc23)s1` [Example 111, 1-(3-(tert-butyl)-1-(5-methylthiophen-2-yl)-1H-pyrazol-5-yl)-3-(4-((2-((6-(dimethylamino)pyrazin-2-yl)amino)pyridin-4-yl)methoxy)naphthalen-1-yl)urea]?
IC50 [1]: 33 nM; IC50 (p38MAPKγ (MAPK12)): 125 nM

What does the source list for `CCc1cncc(Nc2cc(COc3ccc(NC(=O)Nc4cc(C(C)(C)C)nn4-c4ccc(C)c(OC)c4)c4ccccc34)ccn2)n1` [Example 70]?
IC50 [1]: 70 nM; IC50 (p38MAPKγ (MAPK12)): 372 nM

For `Cc1ccc(-n2nc(C(C)(C)C)cc2NC(=O)Nc2ccc(OCc3ccnc(Nc4cnc(C(=O)N5CCC(O)CC5)cn4)c3)c3ccccc23)cc1` [Example 127, 1-(3-(tert-butyl)-1-(p-tolyl)-1H-pyrazol-5-yl)-3-(4-((2-((5-(4-hydroxypiperidine-1-carbonyl)pyrazin-2-yl)amino)pyridin-4-yl)methoxy)naphthalen-1-yl) urea], which IC50 [1] is on record?
The IC50 was 6.8 nM.

And the IC50 (p38MAPKγ (MAPK12))?
Its IC50 is 93 nM.

For `Cc1ccc(-n2nc(C(C)(C)C)cc2NC(=O)Nc2ccc(OCc3ccnc(Nc4cnc(C(=O)NCCC(C)(C)O)cn4)c3)c3ccccc23)cc1` [Example 72], which IC50 [1] is on record?
The IC50 was 11 nM.

What about the IC50 (p38MAPKγ (MAPK12)) of the same compound?
The IC50 was 118 nM.

`Cc1ccc(-n2nc(C(C)(C)C)cc2NC(=O)Nc2ccc(OCc3ccnc(Nc4cnc(C(=O)N5CC[C@H](F)C5)cn4)c3)c3ccccc23)cc1` [Example 242, (S)-1-(3-(tert-butyl)-1-(p-tolyl)-1H-pyrazol-5-yl)-3-(4-((2-((5-(3-fluoropyrrolidine-1-carbonyl)pyrazin-2-yl)amino)pyridin-4-yl)methoxy)naphthalen-1-yl)urea] was tested. Which IC50 [1] did it give?
Its IC50 is 19 nM.

And the IC50 (p38MAPKγ (MAPK12))?
Its IC50 is over 14000 nM.

With `Cc1ccc(-n2nc(C(C)(C)C)cc2NC(=O)Nc2ccc(OCc3ccnc(Nc4cnc(C(=O)N5CCNC(=O)CC5)cn4)c3)c3ccccc23)cc1` [Example 241, 1-(3-(tert-butyl)-1-(p-tolyl)-1H-pyrazol-5-yl)-3-(4-((2-((5-(5-oxo-1,4-diazepane-1-carbonyl)pyrazin-2-yl)amino)pyridin-4-yl)methoxy)naphthalen-1-yl)urea] as the compound, how does the IC50 [1] read?
Its IC50 is 3.4 nM.

And the IC50 (p38MAPKγ (MAPK12))?
The IC50 was 48 nM.

With `CCc1cncc(Nc2cc(COc3ccc(NC(=O)Nc4cc(C(C)(C)C)nn4-c4cccc(Cl)c4)c4ccccc34)ccn2)n1` [Example 175, 1-(3-(tert-butyl)-1-(3-chlorophenyl)-1H-pyrazol-5-yl)-3-(4-((2-((6-ethylpyrazin-2-yl)amino)pyridin-4-yl)methoxy)naphthalen-1-yl)urea] as the compound, how does the IC50 [1] read?
The IC50 was 38 nM.

What about the IC50 (p38MAPKγ (MAPK12)) of the same compound?
The IC50 was over 15500 nM.

How did the IC50 [1] turn out when `COc1ccc(-n2nc(C(C)(C)C)cc2NC(=O)Nc2ccc(OCc3ccnc(Nc4cncc(OC)n4)c3)c3ccccc23)cc1` [Example 108, 1-(3-(tert-butyl)-1-(4-methoxyphenyl)-1H-pyrazol-5-yl)-3-(4-((2-((6-methoxypyrazin-2-yl)amino)pyridin-4-yl)methoxy)naphthalen-1-yl)urea] was run?
Its IC50 is 17 nM.

What about the IC50 (p38MAPKγ (MAPK12)) of the same compound?
The IC50 was 15500 nM.

With `Cc1cc(F)cc(-n2nc(C(C)(C)C)cc2NC(=O)Nc2ccc(OCc3ccnc(Nc4cnc(C(=O)N5CCCC5)cn4)c3)c3ccccc23)c1` [Example 236, 1-(3-(tert-butyl)-1-(3-fluoro-5-methylphenyl)-1H-pyrazol-5-yl)-3-(4-((2-((5-(pyrrolidine-1-carbonyl)pyrazin-2-yl)amino)pyridin-4-yl)methoxy)naphthalen-1-yl)urea] as the compound, how does the IC50 [1] read?
The IC50 was 42 nM.

And the IC50 (p38MAPKγ (MAPK12))?
The IC50 was over 14000 nM.

For `Cc1ccc(-n2nc(C(C)(C)C)cc2NC(=O)Nc2ccc(OCc3ccnc(Nc4cnc(C)c(C)n4)c3)c3ccccc23)cc1F` [Example 182, 1-(3-(tert-butyl)-1-(3-fluoro-4-methylphenyl)-1H-pyrazol-5-yl)-3-(4-((2-((5,6-dimethylpyrazin-2-yl)amino)pyridin-4-yl)methoxy)naphthalen-1-yl) urea], which IC50 [1] is on record?
The IC50 was 44 nM.

And the IC50 (p38MAPKγ (MAPK12))?
The IC50 was 1140 nM.

Which IC50 [1] does the source give for `COc1cccc(-n2nc(C(C)(C)C)cc2NC(=O)Nc2ccc(OCc3ccnc(Nc4cnccn4)c3)c3ccccc23)c1` [Example 142, 1-(3-(tert-butyl)-1-(3-methoxyphenyl)-1H-pyrazol-5-yl)-3-(4-((2-(pyrazin-2-ylamino)pyridin-4-yl)methoxy)naphthalen-1-yl) urea] here?
Its IC50 is 5.7 nM.

What about the IC50 (p38MAPKγ (MAPK12)) of the same compound?
Its IC50 is 78 nM.

With `CCc1cncc(Nc2cc(COc3ccc(NC(=O)Nc4cc(C(C)(C)C)nn4-c4ccc(OC)nc4)c4ccccc34)ccn2)n1` [Example 63] as the compound, how does the IC50 [1] read?
The IC50 was 25 nM.

What about the IC50 (p38MAPKγ (MAPK12)) of the same compound?
The IC50 was 312 nM.

Which IC50 [1] does the source give for `Cc1ccc(-n2nc(C(C)(C)C)cc2NC(=O)Nc2ccc(OCc3ccnc(Nc4cnc(C(=O)N5CC[C@@H](F)C5)cn4)c3)c3ccccc23)cc1` [Example 245, (R)-1-(3-(tert-butyl)-1-(p-tolyl)-1H-pyrazol-5-yl)-3-(4-((2-((5-(3-fluoropyrrolidine-1-carbonyl)pyrazin-2-yl)amino)pyridin-4-yl)methoxy)naphthalen-1-yl)urea] here?
Its IC50 is 18 nM.

And the IC50 (p38MAPKγ (MAPK12))?
Its IC50 is 1700 nM.

Which results are given for `COCCc1cccc(-n2nc(C(C)(C)C)cc2NC(=O)Nc2ccc(OCc3ccnc(Nc4cnccn4)c3)c3ccccc23)c1` [Example 257, 1-(3-(tert-butyl)-1-(3-(2-methoxyethyl)phenyl)-1H-pyrazol-5-yl)-3-(4-((2-(pyrazin-2-ylamino)pyridin-4-yl)methoxy)naphthalen-1-yl)urea]?
IC50 [1]: 12 nM; IC50 (p38MAPKγ (MAPK12)): 68 nM

With `COc1ccc(-n2nc(C(C)(C)C)cc2NC(=O)Nc2ccc(OCc3ccnc(Nc4cnc(CO)cn4)c3)c3ccccc23)cc1C` [Example 133, 1-(3-(tert-butyl)-1-(4-methoxy-3-methylphenyl)-1H-pyrazol-5-yl)-3-(4-((2-((5-(hydroxymethyl)pyrazin-2-yl)amino)pyridin-4-yl)methoxy)naphthalen-1-yl) urea] as the compound, how does the IC50 [1] read?
The IC50 was 7.3 nM.

What about the IC50 (p38MAPKγ (MAPK12)) of the same compound?
Its IC50 is 10200 nM.

How did the IC50 [1] turn out when `CCOc1cncc(Nc2cc(COc3ccc(NC(=O)Nc4cc(C(C)(C)C)nn4-c4ccc(C)cc4)c4ccccc34)ccn2)n1` [Example 116, 1-(3-(tert-butyl)-1-(p-tolyl)-1H-pyrazol-5-yl)-3-(4-((2-((6-ethoxypyrazin-2-yl)amino)pyridin-4-yl)methoxy)naphthalen-1-yl)urea] was run?
Its IC50 is 23 nM.

What about the IC50 (p38MAPKγ (MAPK12)) of the same compound?
Its IC50 is 2820 nM.

Which IC50 [1] does the source give for `Cc1ncc(Nc2cc(COc3ccc(NC(=O)Nc4cc(C(C)(C)C)nn4-c4cccc(F)c4)c4ccccc34)ccn2)nc1C` [Example 169, 1-(3-(tert-butyl)-1-(3-fluorophenyl)-1H-pyrazol-5-yl)-3-(4-((2-((5,6-dimethylpyrazin-2-yl)amino)pyridin-4-yl)methoxy)naphthalen-1-yl)urea] here?
The IC50 was 26 nM.

What about the IC50 (p38MAPKγ (MAPK12)) of the same compound?
The IC50 was 449 nM.
